Reference: publication PMC10023787, “Trio-pharmacophore DNA-encoded chemical library for simultaneous selection of fragments and linkers” (Nature Communications, 2023)
Read-outs that look alike come from different tables or passages of the source. Each block holds one molecule with its values, some of them ahead of it.

Tests used:
[1] = target: T1, MMP-2 (Homo sapiens, UniProt P08253); assay: MMP-2 inhibition assay (fluorogenic peptide substrate); type: biochemical; conditions: for remaining activity (%): MMP-2; for IC50: n.d: not detected
T1 construct: purchased Sino Biological 10082-HNAH
T1 sequence (P08253 110-660): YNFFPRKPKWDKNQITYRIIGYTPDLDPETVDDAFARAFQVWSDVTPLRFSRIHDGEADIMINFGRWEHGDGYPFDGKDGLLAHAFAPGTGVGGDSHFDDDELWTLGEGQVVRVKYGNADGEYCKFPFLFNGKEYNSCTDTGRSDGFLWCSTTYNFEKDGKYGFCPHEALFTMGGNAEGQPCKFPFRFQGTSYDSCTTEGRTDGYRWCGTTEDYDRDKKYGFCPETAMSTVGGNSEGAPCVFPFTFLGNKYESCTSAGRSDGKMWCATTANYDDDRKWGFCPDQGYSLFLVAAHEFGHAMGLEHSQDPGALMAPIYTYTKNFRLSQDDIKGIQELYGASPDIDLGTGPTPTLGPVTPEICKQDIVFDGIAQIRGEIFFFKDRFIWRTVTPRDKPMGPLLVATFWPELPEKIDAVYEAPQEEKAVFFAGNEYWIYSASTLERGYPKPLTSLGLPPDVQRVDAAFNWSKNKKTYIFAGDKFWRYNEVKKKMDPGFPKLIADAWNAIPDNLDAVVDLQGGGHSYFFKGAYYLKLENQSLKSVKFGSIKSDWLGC
Method: (§1) The inhibition by the small molecule compounds against MMP-2/MMP-9 was measured using an assay probing the enzyme proteolytic activity on the substrate DNP-Pro-Leu-Gly-Met-Trp-Ser-Arg (Enzo Life Sciences, USA). All assays were performed in the assay buffer containing 50 mM Tris, 100 mM NaCl. 5 mM CaCl2, and 0.1% Brij 35, pH 7.5. Human proMMP-2 and proMMP-9 were purchased from Sino biological (Germany). The proMMPs were activated by 1 mM APMA in the assay buffer at 37 °C for 2 h. After activation, MMP-2 was diluted to 6.5 nM of final assay concentration, and MMP-9 was diluted by the buffer to reach 10 nM of final assay concentration. In each well, 49 μl of enzyme solution was incubated with 1 μl of compounds of series of concentration (nM-mM in DMSO) at RT for 30 min. 2 μl of the FRET substrate was added right before the measurement at a final concentration of 25 μM. The rate of hydrolysis was monitored by quantifying the emission at 360 nm (ex: 280 nm). The emission was measured with intervals of the 30 s for 30 min with Synergy H1 Plate Reader (Agilent, USA). The measurements were done in triplicate. […] Then, curves were plotted as a function of the concentration of the inhibitor against the relative enzyme activity. Vmax was derived from the detected […] signal for each concentration and logistic fitting was performed to obtain IC50 values using Origin 2019b (OriginLab).

[2] = target: T2, MMP-9 (Homo sapiens, UniProt P14780); assay: MMP-9 inhibition assay (fluorogenic peptide substrate); type: biochemical; set-up: remaining enzyme activity (% of control): scale not given here; conditions: for remaining enzyme activity (% of control): MMP-9; for IC50: Figure 5d, fragment combination joined by linker, n.d: not detected, read-out: MMP9 IC50
T2 construct: purchased Sino Biological 10327-HNAH
Method: as §1

[3] = Figure 5d, fragment combination joined by linker, read-out: MMP2 IC50

T2 sequence (P14780 107-707 limits assumed): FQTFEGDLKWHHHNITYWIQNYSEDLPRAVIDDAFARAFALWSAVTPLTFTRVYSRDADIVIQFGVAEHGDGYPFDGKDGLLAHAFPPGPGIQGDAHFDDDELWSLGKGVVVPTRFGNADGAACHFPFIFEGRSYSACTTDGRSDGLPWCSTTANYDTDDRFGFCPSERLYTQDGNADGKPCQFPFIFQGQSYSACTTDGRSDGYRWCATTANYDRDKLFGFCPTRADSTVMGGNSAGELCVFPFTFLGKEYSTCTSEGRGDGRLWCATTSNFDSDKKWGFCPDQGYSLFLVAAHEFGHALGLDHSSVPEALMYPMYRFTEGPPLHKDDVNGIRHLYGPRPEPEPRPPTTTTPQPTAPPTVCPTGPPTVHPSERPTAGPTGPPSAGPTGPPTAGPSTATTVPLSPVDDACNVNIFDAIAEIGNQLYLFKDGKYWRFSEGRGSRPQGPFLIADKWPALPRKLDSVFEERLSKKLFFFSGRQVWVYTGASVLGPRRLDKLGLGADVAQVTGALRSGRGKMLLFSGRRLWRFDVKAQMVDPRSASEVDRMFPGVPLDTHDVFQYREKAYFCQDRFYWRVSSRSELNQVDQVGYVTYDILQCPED

remaining activity (%) ([1]; concentration 0.0156 µM): 93.33
remaining activity (%) ([1]; concentration 0.08 µM): 91.88
remaining activity (%) ([1]; concentration 0.39 µM): 89.28
remaining activity (%) ([1]; concentration 1.95 µM): 98.93
remaining activity (%) ([1]; concentration 9.75 µM): 95.17
remaining activity (%) ([1]; concentration 48.76 µM): 89.24
remaining activity (%) ([1]; concentration 243.80 µM): 91.48
remaining activity (%) ([1]; concentration 1219.00 µM): 64.77
remaining enzyme activity (% of control) ([2]; concentration 0.08 µM): 90.03
remaining enzyme activity (% of control) ([2]; concentration 0.39 µM): 107.83
remaining enzyme activity (% of control) ([2]; concentration 1.95 µM): 106.33
remaining enzyme activity (% of control) ([2]; concentration 9.75 µM): 95.98
remaining enzyme activity (% of control) ([2]; concentration 48.76 µM): 92.70
remaining enzyme activity (% of control) ([2]; concentration 243.80 µM): 85.14
remaining enzyme activity (% of control) ([2]; concentration 1219.00 µM): 78.29
SMILES: O=C(CNC(=O)NC12CC3CC(CC(C3)C1)C2)NCc1c[nH]nn1 [66+787 Linker 1]

remaining activity (%) ([1]; concentration 0.0156 µM): 93.57
remaining activity (%) ([1]; concentration 0.08 µM): 87.26
remaining activity (%) ([1]; concentration 0.39 µM): 84.29
remaining activity (%) ([1]; concentration 1.95 µM): 79.19
remaining activity (%) ([1]; concentration 9.75 µM): 76.03
remaining activity (%) ([1]; concentration 48.76 µM): 60.10
remaining activity (%) ([1]; concentration 243.80 µM): 68.09
remaining activity (%) ([1]; concentration 1219.00 µM): 72.50
remaining enzyme activity (% of control) ([2]; concentration 0.08 µM): 101.70
remaining enzyme activity (% of control) ([2]; concentration 0.39 µM): 95.25
remaining enzyme activity (% of control) ([2]; concentration 1.95 µM): 95.00
remaining enzyme activity (% of control) ([2]; concentration 9.75 µM): 100.64
remaining enzyme activity (% of control) ([2]; concentration 48.76 µM): 91.07
remaining enzyme activity (% of control) ([2]; concentration 243.80 µM): 93.01
remaining enzyme activity (% of control) ([2]; concentration 1219.00 µM): 79.78
SMILES: O=C(CCCCCCC(=O)NCC12CC3CC(CC(C3)C1)C2)NCc1c[nH]nn1 [66+787 Linker 4]

remaining activity (%) ([1]; concentration 0.07 µM): 89.74
remaining activity (%) ([1]; concentration 0.33 µM): 85.09
remaining activity (%) ([1]; concentration 1.67 µM): 89.74
remaining activity (%) ([1]; concentration 8.34 µM): 82.52
remaining activity (%) ([1]; concentration 41.72 µM): 81.27
remaining activity (%) ([1]; concentration 208.60 µM): 74.95
remaining activity (%) ([1]; concentration 1043.00 µM): 25.65
remaining activity (%) ([1]; concentration […]): 97.97
IC50 ([1]; mean ± SE, Fig. 5d unit inferred, µM, read-out: IC50): 578 ± 96 µM
remaining enzyme activity (% of control) ([2]; concentration 0.07 µM): 99.26
remaining enzyme activity (% of control) ([2]; concentration 0.33 µM): 98.95
remaining enzyme activity (% of control) ([2]; concentration 1.67 µM): 95.42
remaining enzyme activity (% of control) ([2]; concentration 8.34 µM): 94.84
remaining enzyme activity (% of control) ([2]; concentration 41.72 µM): 86.90
remaining enzyme activity (% of control) ([2]; concentration 208.60 µM): 67.40
remaining enzyme activity (% of control) ([2]; concentration 1043.00 µM): 51.64
SMILES: O=C(CCC(=O)NCc1c[nH]nn1)NCCOCCOCCNC(=O)CNC(=O)NC12CC3CC(CC(C3)C1)C2 [66+787 Linker 10]

IC50 [1, 3]: 578 µM
SMILES: O=C(CCC(=O)NCc1c[nH]nn1)NCCOCCOCCNC(=O)CNC(=O)NC12CC3CC(CC(C3)C1)C2 [66_787 10]

IC50 [1, 3]: 861 µM
SMILES: O=C(CNC(=O)NC12CC3CC(CC(C3)C1)C2)NCCSCC(=O)NCc1c[nH]nn1 [66_787 24]

IC50 [2]: 234 µM
SMILES: Cn1c(O)nc2cc(C(=O)NCC34CC5CC(CC(C5)C3)C4)cnc21 [66_826 1]

IC50 [2]: 247 µM
SMILES: O=C(CNC(=O)NC12CC3CC(CC(C3)C1)C2)NCCCCCCCCNC(=O)c1cncc(O)c1 [66_828 4]

IC50 [1, 3]: 439 µM
SMILES: Cn1c(O)nc2cc(C(=O)NCCCCCCCCNC(=O)Cn3cnc4c(oc5ccccc54)c3=O)cnc21 [182_826 4]

IC50 [2]: 283 µM
SMILES: Cn1c(O)nc2cc(C(=O)NCCOCCOCCNC(=O)Cn3cnc4c(oc5ccccc54)c3=O)cnc21 [182_826 10]

IC50 [2]: 281 µM
SMILES: Cn1c(O)nc2cc(C(=O)NCCNC(=O)CSCCNC(=O)Cn3cnc4c(oc5ccccc54)c3=O)cnc21 [182_826 24]
